pIC50: −log10 of the molar value.
Key:
SKBR3 cells = assay: Cell viability assay (WST-8)
Procedure: The cell viability was assessed using Cell Counting Kit-8 (Dojin).

intracellular Hsp90 = details: SKBR3 cells, pre-treated 1–10 µM for 3 h, washed, then 11 0.5 µM
Source text: The cells were washed, lysed and analysed by in-gel fluorescence imaging. […] Error bars represent s.d., n = 3

[1] = system: Hsp90-client proteins HER2, cRaf, Akt and pAkt; assay: Western blotting of Hsp90 client proteins
Procedure: We also examined the expression levels of client proteins of Hsp90 (Fig. 6e, f).
The cells were washed with PBS, and lysed with RIPA buffer containing 1% protease inhibitor cocktail. The lysed samples were centrifuged (15 200 × g, 10 min at 4 °C). The protein concentrations of supernatant were analysed by BCA assay, and the normalised lysates were mixed with 1/4 volume of 5 × sample buffer containing 250 mM DTT and vortexed for 1 h at room temperature.

Hsp90 = details: read-out: reported IC50; cited from earlier work

Question: What does the source list for CC(C)NCCCn1c(Sc2cc3c(cc2I)OCO3)nc2c(N)ncnc21 [PU-H71]?
Answer: cytotoxicity / growth inhibitory effect after washout (SKBR3 cells; SKBR3, 3 h treatment, washing, further 69 h): almost abolished the cytotoxicity; cytotoxicity (SKBR3 cells; SKBR3, long-term incubation for 72 h): remarkable cytotoxicity; blocking of fluorescent labelling of Hsp90 by 11 after washout (intracellular Hsp90): failed to block the labelling reaction; western blotting bands of Hsp90-client proteins relative to vehicle ([1]; SKBR3, 1 μM, 24 h without washing): dramatically decreased; Hsp90-client protein levels after washout ([1]; SKBR3, 3 h treatment, washing, further 21 h): did not significantly affect the band intensities; pIC50 (Hsp90): […]

From article PMC5951806, “Rapid labelling and covalent inhibition of intracellular native proteins using ligand-directed N-acyl-N-alkyl sulfonamide” (Nature Communications, 2018)
